Results reported in patent US9670514B2, “Method for producing polysaccharide” (SANYO CHEMICAL INDUSTRIES, LTD., priority 2011, dated 2017).

Tests used:
cellulose synthase = molecular target: T1, cellulose synthase (Novacetimonas hansenii, UniProt Q59167); assay: Inhibitory concentration IC50 against cellulose synthase; format: biochemical, acetic acid bacteria; details: cellulose synthase (B-3) 1.5 U/mL
T1 construct: FLAG; made in house; host or cells: Escherichia coli SURE, as in Preparation 1
T1 sequence (Q59167 whole entry): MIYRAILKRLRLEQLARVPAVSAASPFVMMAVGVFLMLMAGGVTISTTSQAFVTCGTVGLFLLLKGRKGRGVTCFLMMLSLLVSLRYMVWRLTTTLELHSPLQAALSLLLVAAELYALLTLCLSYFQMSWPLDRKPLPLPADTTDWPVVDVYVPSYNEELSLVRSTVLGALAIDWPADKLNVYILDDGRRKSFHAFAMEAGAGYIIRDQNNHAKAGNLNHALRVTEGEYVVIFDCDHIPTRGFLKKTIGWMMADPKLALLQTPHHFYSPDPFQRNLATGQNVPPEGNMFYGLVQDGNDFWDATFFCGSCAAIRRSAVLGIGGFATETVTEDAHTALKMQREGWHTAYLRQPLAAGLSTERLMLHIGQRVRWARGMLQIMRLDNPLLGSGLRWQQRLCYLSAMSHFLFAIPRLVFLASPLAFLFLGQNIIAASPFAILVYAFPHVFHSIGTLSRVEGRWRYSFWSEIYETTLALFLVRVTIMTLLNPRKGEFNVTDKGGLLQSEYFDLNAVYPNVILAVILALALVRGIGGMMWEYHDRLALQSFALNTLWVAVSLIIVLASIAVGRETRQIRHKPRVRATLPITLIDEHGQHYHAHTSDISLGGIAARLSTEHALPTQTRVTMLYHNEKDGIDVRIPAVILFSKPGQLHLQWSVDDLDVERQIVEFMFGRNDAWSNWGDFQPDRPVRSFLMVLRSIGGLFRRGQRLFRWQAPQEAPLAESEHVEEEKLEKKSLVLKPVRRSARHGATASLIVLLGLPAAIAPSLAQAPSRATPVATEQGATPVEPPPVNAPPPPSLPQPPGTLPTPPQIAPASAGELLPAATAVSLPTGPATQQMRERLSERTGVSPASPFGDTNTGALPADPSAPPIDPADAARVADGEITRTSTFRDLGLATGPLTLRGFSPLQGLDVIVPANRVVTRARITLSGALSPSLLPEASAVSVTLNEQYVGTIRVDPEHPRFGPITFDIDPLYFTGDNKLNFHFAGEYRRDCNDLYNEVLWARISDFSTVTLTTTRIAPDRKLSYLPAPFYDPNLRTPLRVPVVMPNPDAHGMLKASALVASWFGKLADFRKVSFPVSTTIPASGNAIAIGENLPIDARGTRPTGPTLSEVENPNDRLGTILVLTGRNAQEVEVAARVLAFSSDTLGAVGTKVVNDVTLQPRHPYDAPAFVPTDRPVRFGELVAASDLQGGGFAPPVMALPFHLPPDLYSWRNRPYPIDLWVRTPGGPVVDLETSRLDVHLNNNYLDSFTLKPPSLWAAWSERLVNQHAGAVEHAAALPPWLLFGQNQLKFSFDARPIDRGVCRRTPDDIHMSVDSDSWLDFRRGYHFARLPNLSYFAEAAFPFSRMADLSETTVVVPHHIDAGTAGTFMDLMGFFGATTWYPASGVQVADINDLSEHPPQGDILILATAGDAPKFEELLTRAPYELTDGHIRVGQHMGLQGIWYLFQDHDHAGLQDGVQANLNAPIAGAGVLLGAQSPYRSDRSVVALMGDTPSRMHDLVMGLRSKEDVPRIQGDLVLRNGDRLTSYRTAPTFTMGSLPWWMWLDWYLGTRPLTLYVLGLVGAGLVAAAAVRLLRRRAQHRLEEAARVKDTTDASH
Experimental: Hyaluronan synthase aqueous solution (B-1) obtained in Preparation 1 was dissolved to a concentration of 1.5 U/mL in 940 μL of aqueous solution 1 (50 mM phosphate buffer (pH of 7.5, 25° C.) containing 5 mM magnesium chloride and 0.05 mM sodium uridine diphosphate) in a 1.5 mL-tube. The tube was allowed to stand at 40° C. for 20 minutes in a constant temperature water bath. To the tube was added 50 μL of temperature-adjusted (40° C.) substrate solution [1-1] (a solution obtained by dissolving uridine diphosphate-glucuronic acid sodium salt and uridine diphosphate-N-acetylglucosamine both to a concentration of 20 mM in buffer solution B (50 mM phosphate buffer, pH of 7.5, 25° C.)). Thereby, enzyme reaction solution (I-1) was obtained. […] The supernatant (80 μL) was analyzed by HPLC under the following conditions, and the peak areas of hyaluronan were recorded. […]
The inhibitory concentration IC50 was measured in a similar manner as in “Measurement of the inhibitory concentration IC50 against hyaluronan synthase”, except that “cellulose synthase aqueous solution (B-3) obtained in Preparation 12” was used in place of “hyaluronan synthase aqueous solution (B-1) obtained in Preparation 1”, “substrate solution [1-3] […]
The inhibitory concentration IC50 was also determined in a similar manner, except that the amount of cellulose synthase aqueous solution (B-3) was changed from 1.5 U/mL to 45 U/mL. […]

arginine kinase = assay: Michaelis constant Km of uridine triphosphate synthesis using arginine kinase; format: biochemical, Toxoplasma gondii; details: uridine diphosphate as substrate, ω-phosphono-L-arginine as phosphate donor
Experimental: Arginine kinase aqueous solution (D4-1-3) was obtained in a similar manner as in Preparation 1, except that a “gene encoding the amino acid sequence of SEQ ID NO: 9 derived from Toxoplasma gondii” was used in place of the “gene encoding the amino acid sequence of SEQ ID NO: 1 derived from Streptococcus equisimilis”.
The tube was allowed to stand at 30° C. for 3 minutes in a constant temperature water bath. To the tube was added 100 μL of temperature-adjusted (30° C.) substrate solution [2-1] (a solution obtained by dissolving sodium uridine diphosphate to a concentration of 10 mM in buffer solution B). Thereby, enzyme reaction solution (IV-2-1) was obtained. A portion (100 μL) of (IV-2-1) was extracted immediately after preparation and at 1-minute intervals. The extracted portions were heated at 100° C. for 2 minutes to stop the enzyme reaction, and centrifuged using a centrifuge (4° C., 12,000×g, 10 min) to precipitate impurities. The supernatant (80 μL) was analyzed by HPLC, and the peak areas of uridine triphosphate were recorded.
A Hanes-Woolf plot was constructed using the calculated initial enzyme reaction velocity v, with the horizontal axis (x-axis) plotting each substrate concentration [S], and the vertical axis (y-axis) plotting the […] of the initial enzyme reaction velocity at each substrate concentration. […]

`O=c1ccn([C@@H]2O[C@H](COP(=O)(O)OP(=O)(O)O)[C@@H](O)[C@H]2O)c(=O)[nH]1` [uridine diphosphate] showed an IC50 (cellulose synthase) of 100 µM and a Km (arginine kinase) of 710 µM.
